This is an account of results in paper PMC2776349, “Asymmetric Deactivation of HIV-1 gp41 following Fusion Inhibitor Binding” (PLoS Pathogens, 2009).

Ends that are not written are not given here.

In assay [1] the test system is HIV-1HXB2 (gp41). The conditions noted are these: 1HXB2 (gp41, 48 h).
Assay [2] concerns EnvG547D/I548T and EnvV549E. The assay is classed as cell-based. As to conditions: versus wild type Env.
In assay [3] the test system is HIV-1HXB2. The assay is classed as cell-based. The conditions noted are these: low (HOS-CD4-CCR5) versus high (HOS-CD4-CXCR4) CXCR4, HIV-1HXB2.
The target in assay [4] is fluorescein-labeled 5-Helix (Human immunodeficiency virus type 1 group M subtype B, UniProt P04578, C598G/DEL582-596/DEL601-623/N624G). In kind it is binding, HIV-1HXB2.
For assay [5], the system named is HIV-1. The conditions noted are these: compared with wild type C37; ref KMK and MJR, manuscript in preparation; cited from earlier work.

In general, IC50 refers to the concentration that inhibits the measured activity by half. A low value points to higher potency.

In assay [1], “GGHTTDMEWDREANNYTSLIHSLIEESQNQQEKNEQELLGHHHHHH [W628D/I635A]” returned a concentration for half-maximal inhibition (IC50) of 97 ± 8.4 nM.

Regarding “GGHTTDMEWDREINNYTSLAHSLIEESQNQQEKNEQELLGHHHHHH [W628D/I642A]”, the 50% inhibitory concentration (IC50) in assay [1] is 65 ± 9.8 nM.

Consider “GGHTTWMEWDREANNYTSLIHSLIEESQNQQEKNEQELLGHHHHHH [Variant I635A]”, for which, in assay [1], the concentration for half-maximal inhibition (IC50) was 5.7 ± 1.6 nM.

Consider “GGHTTWMEWDREDNNYTSLIHSLIEESQNQQEKNEQELLGHHHHHH [Variant I635D]”, for which the half-inhibitory concentration (IC50) in assay [1] was determined as 3100 ± 350 nM.

“GGHTTWMEWDREINKYISLIHSLIEESQNQQEKNEQELLGHHHHHH [N637K/T639I (KYI)]”: the “impact of G547D/I548T and V549E substitutions on potency” value in assay [2] is “minimal impact”. In addition, the “increase in potency on lowering CXCR4 levels” value in assay [3] is 3.5 fold. Moreover, in assay [4], the kon is 2.4±0.1 x10^7 M-1s-1. Further, in assay [4] (C37 variants, reciprocal of koff), the “τoff (time constant for dissociation)” value amounted to 11000 min. Besides, the resistance development result in assay [5] was “takes much longer to achieve and requires more escape mutations than resistance to wild type C37”. The same sequence returned an IC50 in assay [1] of 0.96 ± 0.1 nM.

“GGHTTWMEWDREINKYTSLIHSLIEESQNQQEKNEQELLGHHHHHH [N637K (KYT)]”: in assay [1], the IC50 is 1.65 ± 0.05 nM.

In turn, “GGHTTWMEWDREINNYISLIHSLIEESQNQQEKNEQELLGHHHHHH [T639I (NYI)]” gave a half-maximal inhibitory concentration (IC50) in assay [1] of 1.7 ± 0.1 nM.

Regarding “GGHTTWMEWDREINNYTSLAHSLIEESQNQQEKNEQELLGHHHHHH [Variant I642A]”, the IC50 in assay [1] amounted to 7 ± 1.5 nM.

In assay [1], “GGHTTWMEWDREINNYTSLDHSLIEESQNQQEKNEQELLGHHHHHH [Variant I642D]” yielded a 50% inhibitory concentration (IC50) of 13000 ± 2100 nM.

As for “GGHTTWMEWDREINNYTSLIHSAIEESQNQQEKNEQELLGHHHHHH [Variant L645A]”, the IC50 in assay [1] was 3.9 ± 0.7 nM.

In assay [1], “GGHTTWMEWDREINNYTSLIHSDIEESQNQQEKNEQELLGHHHHHH [Variant L645D]” returned a concentration for half-maximal inhibition (IC50) of 630 ± 120 nM.

Consider “GGHTTWMEWDREINNYTSLIHSLIEEAQNQQEKNEQELLGHHHHHH [Variant S649A]”, for which the IC50 in assay [1] stood at 1.6 ± 0.41 nM.

In assay [1], “GGHTTWMEWDREINNYTSLIHSLIEEDQNQQEKNEQELLGHHHHHH [Variant S649D]” registered an IC50 of 2300 ± 170 nM.

“GGHTTWMEWDREINNYTSLIHSLIEESQNAQEKNEQELLGHHHHHH [Variant Q652A]” had a half-maximal inhibitory concentration (IC50) in assay [1] of 3.5 ± 0.81 nM.

Take “GGHTTWMEWDREINNYTSLIHSLIEESQNDQEKNEQELLGHHHHHH [Variant Q652D]”: half-maximal inhibition in assay [1] (IC50) required 53 ± 0.98 nM.

Consider “GGHTTWMEWDREINNYTSLIHSLIEESQNQQEKAEQELLGHHHHHH [Variant N656A]”, for which the half-maximal inhibitory concentration (IC50) in assay [1] is 30 ± 4.2 nM.

For the sequence “GGHTTWMEWDREINNYTSLIHSLIEESQNQQEKDEQELLGHHHHHH [Variant N656D]”, the 50% inhibitory concentration (IC50) in assay [1] was 100 ± 8.9 nM.

In assay [1], “GGHTTWMEWDREINNYTSLIHSLIEESQNQQEKNEQALLGHHHHHH [Variant E659A]” displayed an IC50 of 1.2 ± 0.13 nM.
